ChEMBL document CHEMBL1201862, “PubChem BioAssay data set” (2004)
The source made the active and inactive calls.

What was measured:
P388/ADR = assay: cells; type: functional; conditions: Mus musculus
SN12K1 = assay: cells; type: functional; conditions: Homo sapiens
P388 = assay: cells; type: functional; conditions: Mus musculus
INS1 = assay: beta cell apoptosis inhibitors, cytokine rescue, dose response, luminescence, retest (AID 449756); type: functional, cell-based; conditions: Rattus norvegicus;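 further: cell death triggered by IL-1 beta plus TNF-alpha plus IFN-gamma mixture; protective hits raise ATP signal compared with cytokine alone wells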
[1] = Shn3 3'UTR reporter inhibitors, dose response, cell-based, Clone20 osteoblasts, firefly luciferase, cherry-picked (AID 624132); type: functional;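 further: firefly luciferase luminescence from reporter carrying the Shn3 3'UTR in osteoblasts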
[2] = HepG2 cell cytotoxicity, dose response, cytotoxicity control for Shn3 inhibitor project, CellTiter-Glo, cherry-picked (AID 624134); type: functional, cell-based
[3] = control 3'UTR Renilla luciferase suppression, dose response, counter-screen for Shn3 inhibitor project, cell-based, Clone20-Shn3RL, cherry-picked (AID 624133); type: functional
[4] = inhibitors of HIV Env-driven cell fusion, dose response, cherry-pick (AID 652057); type: functional, cell-based
[5] = CEM21 lymphoblast cell cytotoxicity, dose response, cytotoxicity control for viral fusion inhibitor project, CellTiter-Glo luminescence, cherry-picked (AID 652042); type: functional, cell-based;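 further: potency for signal decrease meaning cytotoxicity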
[6] = ZM109 Env clade C HIV-1 fusion inhibitors, dose response, HeLa effector, CEM target cells, luciferase, cherry-pick (AID 652058); type: functional, cell-based
[7] = off-target signal loss in HeLa-CEM21 co-culture – HeLa F-luc CTL cells, cherry-picked, counter-screen for HIV-1 Env fusion inhibitor project, dose response (AID 652040); type: functional, cell-based;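 further: potency for signal decrease marking cytotoxic or nonspecific inhibition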
[8] = inhibitors of clade B AD8 Env fusion, dose response, cell-based, cherry-pick (AID 652062); type: functional;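 further: luciferase signal from cell-cell fusion driven by HIV-1 clade B AD8 Env; potency is for inhibitors of fusion seen as a drop in luminescence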
[9] = target: T1, Endoribonuclease toxin MazF (Escherichia coli K-12, UniProt P0AE70); assay: MazF toxin RNase activators, dose response, biochemical, fluorescence, single-stranded RNA substrate, uHTS hits (AID 588481); type: functional
T1 sequence (P0AE70 whole entry): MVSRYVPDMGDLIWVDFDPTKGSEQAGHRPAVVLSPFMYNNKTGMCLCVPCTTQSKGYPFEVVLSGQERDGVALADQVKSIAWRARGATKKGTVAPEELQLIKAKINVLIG

[10] = target: T1, Endoribonuclease toxin MazF; assay: fluorescent RNA oligo signal without MazF, dose response, counter-screen for MazEF activator project, biochemical, fluorescence, single-stranded RNase substrate (AID 588502); type: functional
Beta-galactosidase = Beta-galactosidase (Escherichia coli, UniProt Q8VNN2); assay: PubChem AID 485352; type: functional
Chain of Beta-galactosidase (Q8VNN2 whole entry): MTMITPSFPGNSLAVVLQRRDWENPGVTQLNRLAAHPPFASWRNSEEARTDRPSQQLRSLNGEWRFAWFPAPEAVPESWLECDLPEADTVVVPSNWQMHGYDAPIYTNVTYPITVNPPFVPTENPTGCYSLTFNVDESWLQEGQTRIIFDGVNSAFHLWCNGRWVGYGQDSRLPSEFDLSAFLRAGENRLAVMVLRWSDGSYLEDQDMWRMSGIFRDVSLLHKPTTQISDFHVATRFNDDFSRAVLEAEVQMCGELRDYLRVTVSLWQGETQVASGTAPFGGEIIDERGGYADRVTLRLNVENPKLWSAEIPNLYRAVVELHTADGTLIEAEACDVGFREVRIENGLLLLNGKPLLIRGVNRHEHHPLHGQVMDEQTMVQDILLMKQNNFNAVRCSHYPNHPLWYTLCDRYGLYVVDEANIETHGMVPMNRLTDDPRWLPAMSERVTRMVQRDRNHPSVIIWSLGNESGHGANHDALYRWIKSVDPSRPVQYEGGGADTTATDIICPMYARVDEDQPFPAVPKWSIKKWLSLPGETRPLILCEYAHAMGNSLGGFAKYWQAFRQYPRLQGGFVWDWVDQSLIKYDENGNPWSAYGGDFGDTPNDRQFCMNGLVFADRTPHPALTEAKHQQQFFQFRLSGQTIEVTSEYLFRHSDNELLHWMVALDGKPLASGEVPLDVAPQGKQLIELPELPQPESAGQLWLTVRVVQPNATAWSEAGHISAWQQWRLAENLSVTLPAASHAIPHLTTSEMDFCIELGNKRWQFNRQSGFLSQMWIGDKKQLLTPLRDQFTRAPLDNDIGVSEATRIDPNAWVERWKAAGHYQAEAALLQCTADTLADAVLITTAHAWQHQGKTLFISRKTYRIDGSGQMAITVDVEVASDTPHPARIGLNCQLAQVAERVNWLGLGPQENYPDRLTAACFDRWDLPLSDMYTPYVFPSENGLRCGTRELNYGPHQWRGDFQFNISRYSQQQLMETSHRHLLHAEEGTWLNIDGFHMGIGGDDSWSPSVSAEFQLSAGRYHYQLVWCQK

[11] = target: T2, Type-1 angiotensin II receptor (Homo sapiens, UniProt P30556); assay: AT1 receptor antagonists, dose response, selectivity assay for APJ receptor antagonist project, cell-based, uHTS hits (AID 463214); type: functional;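 further: antagonist potency against angiotensin II stimulated AT1 response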
T2 sequence (P30556 whole entry): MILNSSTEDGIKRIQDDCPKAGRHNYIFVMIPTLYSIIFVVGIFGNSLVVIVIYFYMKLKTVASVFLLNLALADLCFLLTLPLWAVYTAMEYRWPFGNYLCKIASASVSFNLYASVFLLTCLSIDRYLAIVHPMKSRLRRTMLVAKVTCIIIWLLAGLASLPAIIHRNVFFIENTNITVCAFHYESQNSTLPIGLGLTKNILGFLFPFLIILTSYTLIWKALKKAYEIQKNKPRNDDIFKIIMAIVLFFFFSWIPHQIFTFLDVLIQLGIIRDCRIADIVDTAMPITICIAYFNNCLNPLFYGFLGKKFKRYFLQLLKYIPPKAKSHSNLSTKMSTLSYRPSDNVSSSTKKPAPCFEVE

[12] = target: T3, Probable nicotinate-nucleotide adenylyltransferase (Staphylococcus aureus (strain N315), UniProt P65502); type: functional, Staphylococcus aureus subsp. aureus N315;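 on IC50 Mean: confirmatory dose-response retesting of NadD inhibitor hits first found in an ultra-high-throughput screen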
T3 sequence (P65502 whole entry): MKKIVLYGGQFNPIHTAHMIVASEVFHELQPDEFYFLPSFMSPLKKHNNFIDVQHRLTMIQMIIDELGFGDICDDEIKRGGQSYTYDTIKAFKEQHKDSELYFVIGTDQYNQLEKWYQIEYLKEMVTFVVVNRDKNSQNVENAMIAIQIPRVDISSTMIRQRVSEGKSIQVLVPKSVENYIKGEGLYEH

[13] = target: T3, Probable nicotinate-nucleotide adenylyltransferase; type: functional, Staphylococcus aureus subsp. aureus N315; conditions: read-out: IC50_Mean
Protein skinhead-1 = target: T4, Protein skinhead-1 (Caenorhabditis elegans, UniProt P34707); type: functional
T4 sequence (P34707 whole entry): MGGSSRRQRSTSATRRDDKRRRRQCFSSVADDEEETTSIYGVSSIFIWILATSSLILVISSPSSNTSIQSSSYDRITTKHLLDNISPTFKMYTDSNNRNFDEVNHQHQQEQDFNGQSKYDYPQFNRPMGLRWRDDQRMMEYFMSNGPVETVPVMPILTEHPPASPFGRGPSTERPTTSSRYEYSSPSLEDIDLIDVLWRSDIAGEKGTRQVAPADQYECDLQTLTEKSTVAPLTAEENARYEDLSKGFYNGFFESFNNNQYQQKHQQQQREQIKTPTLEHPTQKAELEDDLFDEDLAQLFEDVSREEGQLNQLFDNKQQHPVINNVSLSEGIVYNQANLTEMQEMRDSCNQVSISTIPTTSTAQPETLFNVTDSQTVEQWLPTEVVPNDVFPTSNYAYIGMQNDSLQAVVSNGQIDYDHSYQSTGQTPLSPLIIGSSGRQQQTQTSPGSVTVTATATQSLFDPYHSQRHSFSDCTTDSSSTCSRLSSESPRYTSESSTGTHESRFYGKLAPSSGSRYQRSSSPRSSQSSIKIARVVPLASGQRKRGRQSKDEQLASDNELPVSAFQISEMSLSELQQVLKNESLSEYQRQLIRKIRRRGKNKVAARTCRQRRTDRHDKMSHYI

In the case of CC(=O)O[C@H]1C(=O)O[C@@H]2C[C@H]3C(C)=CC(=O)[C@@H](O)[C@]3(C)[C@H]3[C@@]4(O)OC[C@]32[C@@H]1[C@@H](C)[C@H]4O, the GI50 (P388/ADR) is reported as 1.66 µM (inactive), the GI50 (SN12K1) is reported as 0.0223 µM (active) and the GI50 (P388) is reported as 0.133 µM (active).

For CC(C)(C)n1ncc2c(=O)n(Cc3cccc(Cn4cnc5c(cnn5C(C)(C)C)c4=O)c3F)cnc21, the AC50 (INS1) was 3.27 µM (active), the AC50 [1] was 1.09 µM (active) and the AC50 [2] was 19.4 µM (active). The AC50 [3] was 0.84 µM (active), the AC50 [4] was 17.9 µM (active) and the AC50 [5] was 35.2 µM (active). For the same compound, the AC50 [6] was 1.74 µM (active), the AC50 [7] was 35.4 µM (active) and the AC50 [8] was 6.31 µM (active).

With Cc1ccc(-c2cc(C#N)c(=O)n(Cc3c(Cl)cccc3Cl)c2)cc1 the EC50 [9] was > 99 µM (inactive) and the EC50 [10] was 41.9 µM (inactive).

With COc1cc(NS(=O)(=O)c2ccc(NC(=S)NC(=O)C3CCCC3)cc2)nc(OC)n1 the EC50 (Beta-galactosidase) was > 40 µM (inactive) and the IC50 [11] was > 40 µM (not active).

With CCOc1ccc2c(c1)S/C(=C\c1cccs1)C(=O)N2 the EC50 [9] was > 99 µM (inactive) and the EC50 [10] was > 99 µM (inactive).

In the case of C/C=C\C=C\C(=O)Nc1cccc(C2=NOC3(C2)C[C@@H](C(N)=O)N(C(=O)C(c2ccccc2)c2ccccc2)C3)c1 (stereo partly drawn), the IC50 [12] is reported as 11.9 µM (active) and the IC50 [13] is reported as 22.8 µM (active).

With COc1ccc(S(=O)(=O)n2ccc(-c3ccc(OCCN(C)c4ccccn4)cc3)n2)cc1 the IC50 (Protein skinhead-1) was > 100 µM (inactive), the AC50 [7] was 1.81 µM (active) and the AC50 [8] was 6.63 µM (active).

With O=NN1C(c2ccccc2)CNC(=O)CC1c1ccccc1 (stereo not drawn) the GI50 (P388/ADR) was 22.8 µM (inactive), the GI50 (SN12K1) was 39.2 µM (inactive) and the GI50 (P388) was 21.8 µM (inactive).

In the case of COc1ccc(NS(=O)(=O)c2ccc(NC(=S)NC(=O)/C=C/c3ccccc3)cc2)nn1, the IC50 [12] is reported as 6.28 µM (active) and the IC50 [13] is reported as 40.6 µM (active).
